Assay results from patent publication US20250123282A1, “METHODS FOR EVALUATION AND TREATMENT OF TYROSINE KINASE INHIBITOR (TKI)-RESISTANT ACUTE MYELOID LEUKEMIA” (LOMA LINDA UNIVERSITY, priority 2021, published 2025).

Assays:
primary AML BMMNC = assay: Ex vivo combination treatment of primary AML BMMNC (FACS, imaging, qPCR); type: cell-based, human; conditions: 80 nM GILT
Protocol: Whether targeting the MIF-CXCR2 signaling pathway would effectively treat AML blasts were investigated. First, the combination of GILT with ribosomal protein S19 (RPS19) on MV4-11 blasts was tested in vitro. RPS19, a MIF inhibitor, has been reported to suppress cisplatin-activated MIF-CD74-NFκB signaling pathway in acute kidney injury. […] The combination of 80 nM GILT with 50 uM SB225002, a CXCR2-inhibitor (CXCR2-I) on MV4-11 blasts in vitro were examined. […] The anti-leukemic effect of combining GILT with CXCR2-I on primary BMMNC ex vivo were examined. […] There may be alternative cytokine pathways compensating for the defect of MIF-CXCR2 pathways.
The combination of 80 nM GILT and 50 uM BAY11-7821 (a NFκB-I) was tested as a novel therapeutic approach for AML.
Next, the anti-leukemic effect of the combination was examined on primary BMMNC from refractory AML patients (Patient #7, Table 4).
Human Samples. AML bone marrow (BM) mononuclear cells (BMMNC) (Patients #1-7, Table 4) were obtained from the City of Hope National Medical Center (COHNMC). All donor patients signed an informed consent form. Sample acquisition was approved by the Institutional Review Boards at the LLUMC and the COHNMC in accordance with an assurance filed with and approved by the Department of Health and Human Services, and it met all requirements of the Declaration of Helsinki.
For MIF in vitro experiments, different doses of MIF were added to 1 ml of 1×10^6 MV4-11 cells or RAW264.7 cells for each experimental group in 24-well plates. Two days after the one dose treatment, cells were then collected for either analyses by FACS and qPCR. As combination agents to treat blasts in vitro or ex vivo, one dose of 80 nM GILT with one dose of different inhibitors were added to 1 ml of 1×10^6 MV4-11 cells or 1 ml of 0.5-1×10^6 primary AML BMMNC for each experimental group in 24-well plates. Dose-dependent experiments of CXCR2 inhibitor and NFκB inhibitor with or without 80 nM GILT were performed. […] Three days after the one dose treatment, cells were then collected for either analyses by FACS and qPCR.
(§1) Flow Cytometry (FACS). Cells were harvested and examined for the expression of cell surface biomarkers (CD) and intracellular proteins by multichromatic FACS as previously described. About 1×10^4˜10^6 cells in 100 μl FACS buffer (PBS containing 1% FBS and 0.05% sodium azide) were stained with various fluorescence-conjugated antibodies specific for the desired cell surface proteins at 4° C. for 30 min. The surface-stained cells were then fixed and permeabilized using the appropriate reagents (e.g. the BD Pharmingen Cytofix/Cytoperm buffer) and stained with different fluorescence-conjugated antibodies specific for the desired intracellular proteins at 4° C. for 2 hours in the permeabilizing buffer (e.g. the BD Perm/Wash buffer). Concentrations of the Abs were used per the manufacturers' recommendations. Finally, the cells were washed twice in the permeabilizing buffer and twice in the FACS buffer before being analyzed on the BD FACSAria II. Data was analyzed using the FlowJo software (Tree Star Inc., Ashland, OR).
RNA Isolation and Real-Time Polymerase Chain Reaction (qPCR) analysis. MV4-11 and MOLM-14 cells were cultured with the presence of TKI drugs for 72 hours or re-plated 28 days after the treatment of TKI drugs. Cells were isolated for RNA isolation and qPCR analysis as previously described. Total RNA was isolated using the RNeasy Micro Kit (Qiagen) according to the manufacturer's instruction. First-strand cDNA was synthesized using the SuperScript III Reverse Transcriptase (Invitrogen; Life Technologies). With an Applied Biosystems 7900HT Real-Time PCR machine, qPCR was performed and analyzed using known primers for the specific markers. The PCR conditions were 10 minutes at 95° C. followed by 40 cycles of 10 seconds at 95° C. and 15 seconds at 60° C. The relative expression level of a gene was determined using the ΔΔCt method and normalized to GAPDH.

MOLM-14 cells = assay: FACS of TKI-treated MOLM-14 cells in vitro (viable blasts, pBAD); type: cell-based, human; conditions: 3 days after one dose of 80 nM TKI; vs non-treatment controls
Protocol: The AML cells were analyzed at different time points after exposure to TKI (3 days, 10 days, 20 days, and 28 days). […] After 3 days, FACS of the surface markers and intracellular proteins, including CD14, CD33, CD44, and Ki67, were performed. FIGS. 1A-1E depicts therapeutic effect of different TKIs on MV4-11 and MOLM-14 cells in vitro (N=6). […] The circles indicate the group of viable blasts located in a FACS plot and green arrows indicate the dying tendency of blasts which will become positive for viability dye during the next few days. FIGS. 1C and 1D are graphical representations of the cumulative FACS percentage data of viable MV4-11 and MOLM-14 cells. *P<0.05. […]
as §1, with “Cells were harvested and examined for the expression of cell surface biomarkers (CD) and intracellular proteins by multichromatic FACS as previously described.” left out, “Concentrations of the Abs were used per the manufacturers' recommendations.” left out, “Data was analyzed using the FlowJo software (Tree Star Inc., Ashland, OR).” left out

[1] = newly diagnosed AML, Patient #5, 50 uM BAY11-7821
[2] = primary BMMNC ex vivo (Patient #2 and #3), 50 uM CXCR2-I

SMILES	percentage of Ki67+CD33+ proliferating blasts (primary AML BMMNC; [1])	percentage of viable CD33+CD13+ primary blasts (primary AML BMMNC; [1])	percentage of Ki67+CD13+ blasts (primary AML BMMNC; [2])	percentage of viable CD33+CD13+ primary blasts (primary AML BMMNC; [2])	viable MOLM-14 blasts (FACS) (MOLM-14 cells)
CCc1nc(C(N)=O)c(Nc2ccc(N3CCC(N4CCN(C)CC4)CC3)c(OC)c2)nc1NC1CCOCC1 [GILT, Gilteritinib]	73.3%	35.8%	60%	7.14%	
CC(C)(C)c1cc(NC(=O)Nc2ccc(-c3cn4c(n3)sc3cc(OCCN5CCOCC5)ccc34)cc2)no1 [QUIZ, Quizartinib]					more effective
